Experimental data as given in patent publication US20060014790A1, “Methods of treatment of amyloidosis using spirocyclohexane aspartyl-protease inhibitors” (priority 2004, published 2006).
“And” between values parts separate entries of the source, which are not always exact repeats. Equal values may be shown once.

Molecular target: catD / beta-secretase (BACE)
Assay: CatD/BACE selectivity (ratio of IC50 values)
Assay type: biochemical
Conditions: each value is an average of four experimental runs; multiple values = more than one experiment
Protocol: Selectivity was calculated as a ratio of inhibition (IC50) values in which the inhibition of beta-secretase was compared to the inhibition of other aspartyl proteases.
In the following examples, each value is an average of four experimental runs and multiple values for one compound indicate that more than one experiment was conducted.

| SMILES | IC50 catD/IC50 BACE |
| --- | --- |
| CONC1CCC(NCC(O)C(Cc2cc(F)cc(F)c2)NC(C)=O)(c2cccc(C(C)(C)C)c2)CC1 (single isomer, unassigned) [196A-20 Diastereomer A, N-(4-(1-(3-tert-butylphenyl)-4-(methoxyamino)cyclohexylamino)-1-(3,5-difluorophenyl)-3-hydroxybutan-2-yl)acetamide] | 5.0 |
| CONC1CCC(NCC(O)C(Cc2cc(F)cc(F)c2)NC(C)=O)(c2cccc(C(C)(C)C)c2)CC1 (single isomer, unassigned) [196A-21 Diastereomer B, N-(4-(1-(3-tert-butylphenyl)-4-(methoxyamino)cyclohexylamino)-1-(3,5-difluorophenyl)-3-hydroxybutan-2-yl)acetamide] | 12.3 |
| CNC1CCC(NCC(O)C(Cc2cc(F)cc(F)c2)NC(C)=O)(c2cccc(C(C)(C)C)c2)CC1 (single isomer, unassigned) [196A-26 Diastereomer A, N-(4-(1-(3-tert-butylphenyl)-4-(methylamino)cyclohexylamino)-1-(3,5-difluorophenyl)-3-hydroxybutan-2-yl)acetamide] | >4.7 |
| CNC1CCC(NCC(O)C(Cc2cc(F)cc(F)c2)NC(C)=O)(c2cccc(C(C)(C)C)c2)CC1 (single isomer, unassigned) [196A-28 Diastereomer B, N-(4-(1-(3-tert-butylphenyl)-4-(methylamino)cyclohexylamino)-1-(3,5-difluorophenyl)-3-hydroxybutan-2-yl)acetamide] | >3.9 |
| CC(=O)NC(Cc1cc(F)cc(F)c1)C(O)CNC1(c2cccc(C(C)(C)C)c2)CCC(N)CC1 (single isomer, unassigned) [196A-29 Diastereomer A, N-(4-(1-(3-tert-butylphenyl)-4-aminocyclohexylamino)-1-(3,5-difluorophenyl)-3-hydroxybutan-2-yl)acetamide] | >8.4 |
| CC(=O)NC(Cc1cc(F)cc(F)c1)C(O)CNC1(c2cccc(C(C)(C)C)c2)CCC(N)CC1 (single isomer, unassigned) [196A-30 Diastereomer B, N-(4-(1-(3-tert-butylphenyl)-4-aminocyclohexylamino)-1-(3,5-difluorophenyl)-3-hydroxybutan-2-yl)acetamide] | >8.4 |
| CC(=O)NC(Cc1cc(F)cc(F)c1)C(O)CNC1(c2cccc(C(C)(C)C)c2)CCC(C(F)(F)F)CC1 (single isomer, unassigned) [196A-32 Diastereomer A, N-(4-(1-(3-tert-butylphenyl)-4-(trifluoromethyl)cyclohexylamino)-1-(3,5-difluorophenyl)-3-hydroxybutan-2-yl)acetamide] | 1.7 |
| CC(=O)NC1CCC(NCC(O)C(Cc2cc(F)cc(F)c2)NC(C)=O)(c2cccc(C(C)(C)C)c2)CC1 (single isomer, unassigned) [196A-33 Diastereomer A, N-[3-[4-Acetylamino-1-(3-tert-butyl-phenyl)-cyclohexylamino]-1-(3,5-difluoro-benzyl)-2-hydroxy-propyl]-acetamide] | 34.4 |
| CC(=O)NC(Cc1cc(F)cc(F)c1)C(O)CNC1(c2cccc(C(C)(C)C)c2)CCC(O)(CO)CC1 (single isomer, unassigned) [196A-35 Diastereomer A, N-[3-[1-(3-tert-Butyl-phenyl)-4-hydroxy-4-hydroxymethyl-cyclohexylamino]-1-(3,5-difluoro-benzyl)-2-hydroxy-propyl]-acetamide] | >7.4 |
| CC(=O)NC(Cc1cc(F)cc(F)c1)C(O)CNC1(c2cccc(C(C)(C)C)c2)CCC(O)(CO)CC1 (single isomer, unassigned) [196A-36 Diastereomer B, N-[3-[1-(3-tert-Butyl-phenyl)-4-hydroxy-4-hydroxymethyl-cyclohexylamino]-1-(3,5-difluoro-benzyl)-2-hydroxy-propyl]-acetamide] | >5.3 |
| COC(=O)NC1CCC(NCC(O)C(Cc2cc(F)cc(F)c2)NC(C)=O)(c2cccc(C(C)(C)C)c2)CC1 (single isomer, unassigned) [196A-37 Diastereomer A, methyl 4-(3-acetamido-4-(3,5-difluorophenyl)-2-hydroxybutylamino)-4-(3-tert-butylphenyl)cyclohexylcarbamate] | 7.7 |
| COC(=O)NC1CCC(NCC(O)C(Cc2cc(F)cc(F)c2)NC(C)=O)(c2cccc(C(C)(C)C)c2)CC1 (single isomer, unassigned) [196A-38 Diastereomer B, methyl 4-(3-acetamido-4-(3,5-difluorophenyl)-2-hydroxybutylamino)-4-(3-tert-butylphenyl)cyclohexylcarbamate] | 2.6 and 2.0 and 2.3 |
| CC(=O)NC(Cc1cc(F)cc(F)c1)C(O)CNC1(c2cccc(C(C)(C)C)c2)CCC(N(O)C(C)=O)CC1 (single isomer, unassigned) [196A-39 Diastereomer A] | 9.6 |
| CC(=O)NC(Cc1cc(F)cc(F)c1)C(O)CNC1(c2cccc(C(C)(C)C)c2)CCC(NS(C)(=O)=O)CC1 (single isomer, unassigned) [196A-41 Diastereomer A, N-(4-(1-(3-tert-butylphenyl)-4-(methylsulfonamido)cyclohexylamino)-1-(3,5-difluorophenyl)-3-hydroxybutan-2-yl)acetamide] | 18.1 |
| CC(=O)NC(Cc1cc(F)cc(F)c1)C(O)CNC1(c2cccc(C(C)(C)C)c2)CCC(NS(C)(=O)=O)CC1 (single isomer, unassigned) [196A-42 Diastereomer B, N-(4-(1-(3-tert-butylphenyl)-4-(methylsulfonamido)cyclohexylamino)-1-(3,5-difluorophenyl)-3-hydroxybutan-2-yl)acetamide] | >3.0 |
| CC(=O)NC(Cc1cc(F)cc(F)c1)C(O)CNC1(c2cccc(C(C)(C)C)c2)CCC(NC=O)CC1 (single isomer, unassigned) [196A-43 Diastereomer A, N-(4-(1-(3-tert-butylphenyl)-4-formamidocyclohexylamino)-1-(3,5-difluorophenyl)-3-hydroxybutan-2-yl)acetamide] | 84.5 |
| CNC(=O)NC1CCC(NCC(O)C(Cc2cc(F)cc(F)c2)NC(C)=O)(c2cccc(C(C)(C)C)c2)CC1 (single isomer, unassigned) [196A-45 Diastereomer A, 1-(4-(3-acetamido-4-(3,5-difluorophenyl)-2-hydroxybutylamino)-4-(3-tert-butylphenyl)cyolohexyl)-3-methylurea] | >3.5 |
| CNC(=O)NC1CCC(NCC(O)C(Cc2cc(F)cc(F)c2)NC(C)=O)(c2cccc(C(C)(C)C)c2)CC1 (single isomer, unassigned) [196A-46 Diastereomer B, 1-(4-(3-acetamido-4-(3,5-difluorophenyl)-2-hydroxybutylamino)-4-(3-tert-butylphenyl)cyclohexyl)-3-methylurea] | >1.3 |
| CC(=O)NC(Cc1cc(F)cc(F)c1)C(O)CNC1(c2cccc(C(C)(C)C)c2)CCC([S+](C)[O-])CC1 (stereo not shown) [196A-34 Mix, N-(4-(1-(3-tert-butylphenyl)-4-(methylsulfinyl)cyclohexylamino)-1-(3,5-difluorophenyl)-3-hydroxybutan-2yl)acetamide] | 2.1 |
| CCc1cccc(C2(NCC(O)C(Cc3cc(F)cc(F)c3)NC(C)=O)CCOCC2)c1 (stereo not shown) [Example 196A-1, N-{1-(3,5-Difluoro-benzyl)-3-[4-(3-ethyl-phenyl)-tetrahydro-pyran-4-ylamino]-2-hydroxy-propyl}-acetamide] | 3.0 and 2.3 and 2.7 |
| CC(=O)NC(Cc1ccc(O)cc1)C(O)CNC1(c2cccc(C(C)C)c2)CCCCC1 (stereo not shown) [Example 196A-2, N-{2-Hydroxy-1-(4-hydroxy-benzyl)-3-[1-(3-isopropyl-phenyl)-cyclohexylamino]-propyl}-acetamide] | 3.6 and 4.1 and 3.9 |
| CC(=O)NC(Cc1cccc(F)c1)C(O)CNC1(c2cccc(C(C)C)c2)CCCCC1 (stereo not shown) [Example 196A-4, N-{1-(3-Fluoro-benzyl)-2-hydroxy-3-[1-(3-isopropyl-phenyl)-cyclohexylamino]-propyl}-acetamide] | 1.1 |
| CC(=O)NC(Cc1cc(F)cc(F)c1)C(O)CNC1(c2cccc(C(C)C)c2)CCC2(CC1)OCCO2 (stereo not shown) [Example 196A-6, N-{1-(3,5-Difluoro-benzyl)-2-hydroxy-3-[8-(3-isopropyl-phenyl)-1,4-dioxa-spiro[4.5]dec-8-ylamino]-propyl}-acetamide] | 11.4 |
| CC(=O)NC(Cc1cc(F)cc(F)c1)C(O)CNC1(c2cccc(C(C)C)c2)CCS(=O)(=O)CC1 (stereo not shown) [Example 196A-9, N-{1-(3,5-Difluoro-benzyl)-2-hydroxy-3-[4-(3-isopropyl-phenyl)-1,1-dioxo-hexahydro-1l6-thiopyran-4-ylamino]-propyl}-acetamide] | 1.4 |
| CC(=O)NC(Cc1cc(F)cc(F)c1)C(O)CNC1(c2cccc(C(C)C)c2)CCN(C(C)=O)CC1 (stereo not shown) [Example 196A-10, N-[3-[1-Acetyl-4-(3-isopropyl-phenyl)-piperidin-4-ylamino]-1-(3,5-difluoro-benzyl)-2-hydroxy-propyl]-acetamide] | 3.2 |
| CC(=O)NC(Cc1cc(F)cc(F)c1)C(O)CNC1(c2cccc(C(C)C)c2)CCN(S(C)(=O)=O)CC1 (stereo not shown) [Example 196A-11, N-{1-(3,5-Difluoro-benzyl)-2-hydroxy-3-[4-(3-isopropyl-phenyl)-1-methanesulfonyl-piperidin-4-ylamino]-propyl}-acetamide] | 12.7 |
| CC(=O)NC(Cc1cc(F)cc(F)c1)C(O)CNC1(c2cccc(C(C)C)c2)CCN(C(=O)C(F)(F)F)CC1 (stereo not shown) [Example 196A-12, N-{1-(3,5-Difluoro-benzyl)-2-hydroxy-3-[4-(3-isopropyl-phenyl)-1-(2,2,2-trifluoro-acetyl)-piperidin-4-ylamino]-propyl}-acetamide] | 1.1 |
| CC(=O)NC(Cc1cc(F)cc(F)c1)C(O)CNC1(c2cccc(C(C)C)c2)CCN(C=O)CC1 (stereo not shown) [Example 196A-13, N-{1-(3,5-Difluoro-benzyl)-3-[1-formyl-4-(3-isopropyl-phenyl)-piperidin-4-ylamino]-2-hydroxy-propyl}-acetamide] | 33.5 |
